From patent US20190330224A1, “ACC INHIBITORS AND USES THEREOF” (Gilead Apollo, LLC, priority 2015, published 2019)
Converted amounts (≈) assume the structure as drawn.

Columns and labels:
Human ACC2 = Human ACC2 (Homo sapiens, UniProt O00763); experiment: In vitro ACC2 inhibition assay (ADP-Glo), human ACC2; type: biochemical; conditions: 5 nM ACC2, 20 μM ATP, 20 μM acetyl-CoA
C. albicans ATCC 90028 = experiment: Anti-Fungal Activity Assay (broth microtiter MIC), C. albicans; type: cell-based, Candida albicans; conditions: Candida albicans, ATCC90028, 48 h, 3 replicates; MIC recorded at 48 h; read-out: MIC C. albicans ATCC 90028
Procedure, shortened: (§1)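 Candida strains were grown from frozen stock on Sabouraud dextrose agar overnight at 35° C, then suspended directly in RPMI 1640+MOPS and quantified against standard curves. Broth microdilution MIC plates followed CLSI M27-A3; MICs were read visually against growth control at 48 h, with a 24 h read added for soraphen.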

C. krusei ATCC 6258 = experiment: Anti-Fungal Activity Assay (broth microtiter MIC), C. krusei; type: cell-based, Candida krusei; conditions: Pichia kudriavzevii, ATCC6258, 48 h, 3 replicates; MIC recorded at 48 h; read-out: MIC C. krusei ATCC 6258
Procedure, shortened: as §1

[1] = tested on: C. parapsilosis ATCC 22019; experiment: Anti-Fungal Activity Assay (broth microtiter MIC), C. parapsilosis; type: cell-based, Candida parapsilosis; conditions: Lodderomyces parapsilosis, ATCC22019, 48 h, 3 replicates; MIC recorded at 48 h; read-out: MIC C. parapsilosis ATCC 22019
Procedure, shortened: as §1

Fungal ACC2 = Fungal ACC2 (UniProt Q00955); conditions: read-out: Fungal ACC2 (IC50, in vitro ACC2 inhibition)
Chain of Fungal ACC2 (Q00955 whole entry): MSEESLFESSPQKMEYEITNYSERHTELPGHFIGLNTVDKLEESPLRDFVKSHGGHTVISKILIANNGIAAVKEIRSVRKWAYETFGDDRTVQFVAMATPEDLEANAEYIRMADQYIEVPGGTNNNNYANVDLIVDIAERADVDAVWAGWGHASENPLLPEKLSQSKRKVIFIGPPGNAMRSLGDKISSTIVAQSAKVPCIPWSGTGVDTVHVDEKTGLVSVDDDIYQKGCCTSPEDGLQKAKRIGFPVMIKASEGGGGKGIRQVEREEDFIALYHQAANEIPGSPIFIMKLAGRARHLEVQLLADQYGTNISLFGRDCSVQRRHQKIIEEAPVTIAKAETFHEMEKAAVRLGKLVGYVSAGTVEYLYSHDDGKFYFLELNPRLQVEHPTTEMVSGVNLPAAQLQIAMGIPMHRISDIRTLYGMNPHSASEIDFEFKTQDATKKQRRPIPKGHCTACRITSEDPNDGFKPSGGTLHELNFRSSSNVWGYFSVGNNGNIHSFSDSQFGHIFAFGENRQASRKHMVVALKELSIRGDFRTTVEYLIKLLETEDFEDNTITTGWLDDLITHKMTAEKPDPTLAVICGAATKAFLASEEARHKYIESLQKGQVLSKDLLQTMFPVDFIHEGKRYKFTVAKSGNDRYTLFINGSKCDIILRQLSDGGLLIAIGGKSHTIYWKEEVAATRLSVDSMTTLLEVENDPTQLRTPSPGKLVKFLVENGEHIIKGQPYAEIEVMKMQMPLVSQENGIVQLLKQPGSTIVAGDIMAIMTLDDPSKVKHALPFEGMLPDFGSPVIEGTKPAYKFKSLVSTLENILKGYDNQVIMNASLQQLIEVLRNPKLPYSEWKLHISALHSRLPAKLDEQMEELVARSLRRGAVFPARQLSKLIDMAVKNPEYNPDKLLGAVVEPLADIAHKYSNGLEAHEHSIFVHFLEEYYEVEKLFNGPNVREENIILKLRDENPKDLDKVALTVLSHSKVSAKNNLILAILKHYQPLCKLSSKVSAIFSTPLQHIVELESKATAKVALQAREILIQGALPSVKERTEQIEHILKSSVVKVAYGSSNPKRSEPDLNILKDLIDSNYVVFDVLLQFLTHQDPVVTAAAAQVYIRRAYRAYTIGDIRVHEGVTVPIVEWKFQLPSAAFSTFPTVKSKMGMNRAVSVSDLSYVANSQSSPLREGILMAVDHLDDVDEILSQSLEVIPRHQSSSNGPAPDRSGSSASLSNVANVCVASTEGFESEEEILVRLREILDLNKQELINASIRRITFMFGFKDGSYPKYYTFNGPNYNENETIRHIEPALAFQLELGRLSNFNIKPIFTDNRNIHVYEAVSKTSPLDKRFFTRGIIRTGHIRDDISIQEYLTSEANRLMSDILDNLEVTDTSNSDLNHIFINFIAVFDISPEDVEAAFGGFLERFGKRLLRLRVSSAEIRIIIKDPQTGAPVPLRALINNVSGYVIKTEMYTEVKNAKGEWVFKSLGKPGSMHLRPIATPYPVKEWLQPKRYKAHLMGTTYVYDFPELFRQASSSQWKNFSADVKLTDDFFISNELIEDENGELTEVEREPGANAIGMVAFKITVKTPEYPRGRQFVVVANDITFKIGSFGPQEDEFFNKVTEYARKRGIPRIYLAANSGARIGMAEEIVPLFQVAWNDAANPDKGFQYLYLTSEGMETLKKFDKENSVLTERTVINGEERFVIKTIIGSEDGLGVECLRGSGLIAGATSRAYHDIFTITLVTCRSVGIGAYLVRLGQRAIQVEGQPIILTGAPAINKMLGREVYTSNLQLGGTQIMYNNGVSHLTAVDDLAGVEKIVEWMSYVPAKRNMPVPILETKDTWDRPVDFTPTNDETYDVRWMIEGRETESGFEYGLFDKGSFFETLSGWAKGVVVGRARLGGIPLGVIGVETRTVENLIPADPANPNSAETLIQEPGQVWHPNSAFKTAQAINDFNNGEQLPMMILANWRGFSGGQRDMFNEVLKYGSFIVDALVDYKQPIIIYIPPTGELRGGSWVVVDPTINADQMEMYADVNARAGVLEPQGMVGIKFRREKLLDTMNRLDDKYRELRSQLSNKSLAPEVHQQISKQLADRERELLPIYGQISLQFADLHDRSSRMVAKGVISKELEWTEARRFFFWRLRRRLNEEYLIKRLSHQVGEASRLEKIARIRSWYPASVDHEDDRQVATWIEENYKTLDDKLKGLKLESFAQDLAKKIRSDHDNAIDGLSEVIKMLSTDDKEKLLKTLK

Chain of Human ACC2 (O00763 whole entry): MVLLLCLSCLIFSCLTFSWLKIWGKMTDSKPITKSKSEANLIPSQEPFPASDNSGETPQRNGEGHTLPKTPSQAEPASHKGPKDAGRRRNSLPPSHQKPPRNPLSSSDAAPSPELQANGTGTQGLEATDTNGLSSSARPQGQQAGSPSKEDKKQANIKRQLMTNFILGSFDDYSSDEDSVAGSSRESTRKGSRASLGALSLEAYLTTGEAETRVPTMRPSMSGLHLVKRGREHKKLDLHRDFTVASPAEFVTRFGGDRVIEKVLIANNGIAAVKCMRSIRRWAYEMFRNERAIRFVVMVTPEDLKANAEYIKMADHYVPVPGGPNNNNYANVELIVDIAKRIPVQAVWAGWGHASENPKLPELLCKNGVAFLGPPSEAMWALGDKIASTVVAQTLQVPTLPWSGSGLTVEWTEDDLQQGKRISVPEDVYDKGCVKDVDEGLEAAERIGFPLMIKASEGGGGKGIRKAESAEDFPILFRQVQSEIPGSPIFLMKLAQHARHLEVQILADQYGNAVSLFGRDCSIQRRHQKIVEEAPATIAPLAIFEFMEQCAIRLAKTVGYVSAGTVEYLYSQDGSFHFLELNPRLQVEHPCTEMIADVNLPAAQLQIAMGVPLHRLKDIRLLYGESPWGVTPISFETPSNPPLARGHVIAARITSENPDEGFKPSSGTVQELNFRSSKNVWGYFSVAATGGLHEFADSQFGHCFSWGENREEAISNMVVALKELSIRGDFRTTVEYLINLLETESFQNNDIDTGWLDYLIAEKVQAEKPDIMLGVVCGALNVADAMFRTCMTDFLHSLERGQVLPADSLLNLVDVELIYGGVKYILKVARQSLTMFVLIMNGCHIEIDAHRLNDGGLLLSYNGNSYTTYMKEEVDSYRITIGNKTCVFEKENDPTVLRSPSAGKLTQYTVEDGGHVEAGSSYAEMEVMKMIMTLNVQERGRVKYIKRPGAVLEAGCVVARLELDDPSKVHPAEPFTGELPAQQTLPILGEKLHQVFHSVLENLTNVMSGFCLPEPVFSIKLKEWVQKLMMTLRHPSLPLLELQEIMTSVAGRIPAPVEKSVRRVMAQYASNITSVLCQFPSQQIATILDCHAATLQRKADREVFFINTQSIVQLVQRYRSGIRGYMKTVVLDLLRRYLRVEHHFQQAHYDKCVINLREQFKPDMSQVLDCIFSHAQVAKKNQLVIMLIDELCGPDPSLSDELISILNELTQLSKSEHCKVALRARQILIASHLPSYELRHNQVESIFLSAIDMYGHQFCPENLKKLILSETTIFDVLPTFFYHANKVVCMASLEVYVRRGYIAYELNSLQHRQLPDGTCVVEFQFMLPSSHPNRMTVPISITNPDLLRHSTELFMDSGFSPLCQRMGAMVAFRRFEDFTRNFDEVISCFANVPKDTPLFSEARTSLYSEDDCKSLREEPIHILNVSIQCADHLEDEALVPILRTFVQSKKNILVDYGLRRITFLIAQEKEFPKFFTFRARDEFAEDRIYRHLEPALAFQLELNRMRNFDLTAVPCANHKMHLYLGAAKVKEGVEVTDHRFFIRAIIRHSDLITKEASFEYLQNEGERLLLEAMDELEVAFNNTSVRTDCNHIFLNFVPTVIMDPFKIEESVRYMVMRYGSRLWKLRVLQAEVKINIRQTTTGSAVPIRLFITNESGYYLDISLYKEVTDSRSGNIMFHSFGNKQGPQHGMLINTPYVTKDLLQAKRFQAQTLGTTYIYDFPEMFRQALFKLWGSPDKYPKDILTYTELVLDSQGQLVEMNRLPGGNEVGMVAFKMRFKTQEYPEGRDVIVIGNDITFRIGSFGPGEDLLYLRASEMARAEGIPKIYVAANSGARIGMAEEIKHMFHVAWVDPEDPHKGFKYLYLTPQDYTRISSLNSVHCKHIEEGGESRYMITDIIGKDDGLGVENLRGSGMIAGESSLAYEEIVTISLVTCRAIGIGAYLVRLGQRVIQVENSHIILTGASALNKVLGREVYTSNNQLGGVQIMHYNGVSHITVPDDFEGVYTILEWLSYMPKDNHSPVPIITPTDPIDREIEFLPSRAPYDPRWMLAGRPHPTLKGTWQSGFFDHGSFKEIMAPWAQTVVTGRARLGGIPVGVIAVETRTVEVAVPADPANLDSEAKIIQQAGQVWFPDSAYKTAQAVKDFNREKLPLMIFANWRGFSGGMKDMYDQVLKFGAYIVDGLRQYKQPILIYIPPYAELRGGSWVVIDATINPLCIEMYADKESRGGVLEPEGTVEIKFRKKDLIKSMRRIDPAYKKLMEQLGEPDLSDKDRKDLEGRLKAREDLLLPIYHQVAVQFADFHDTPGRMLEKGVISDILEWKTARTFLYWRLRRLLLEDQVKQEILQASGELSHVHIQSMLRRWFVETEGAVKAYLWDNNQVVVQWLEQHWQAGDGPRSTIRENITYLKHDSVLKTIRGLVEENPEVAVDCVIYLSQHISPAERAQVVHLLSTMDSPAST

Row | SMILES | IC50 (Human ACC2) | MIC (C. albicans ATCC 90028) | MIC (C. krusei ATCC 6258) | MIC [1] | IC50 (Fungal ACC2)
1 | COc1ccc(F)cc1[C@H](Cn1c(=O)n([C@H]2CNC(=O)C2)c(=O)c2c(C)c(-n3nccn3)sc21)OCCO [Compound I-89, 1-((R)-2-(5-fluoro-2-methoxyphenyl)-2-(2-hydroxy-ethoxy)ethyl)-5-methyl-3-((R)-5-oxopyrrolidin-3-yl)-6-(2H-1,2,3-triazol-2-yl)thieno[2,3-d]pyrimidine-2,4(1H, 3H)-dione] | 2 to 10 nM | 2.1 to 4 µg/mL (≈ 3.86 to 7.35 µM) | 2.1 to 4 µg/mL (≈ 3.86 to 7.35 µM) | 2.1 to 4 µg/mL (≈ 3.86 to 7.35 µM) | 0.7 to 2 nM
2 | COCCO[C@@H](Cn1c(=O)n([C@@H]2CNC(=O)C2)c(=O)c2c(C)c(-n3nccn3)sc21)c1cc(F)ccc1OC [Compound I-90, 1-((R)-2-(5-fluoro-2-methoxyphenyl)-2-(2-methoxy-ethoxy)ethyl)-5-methyl-3-((S)-5-oxopyrrolidin-3-yl)-6-(2H-1,2,3-triazol-2-yl)thieno[2,3-d]pyrimidine-2,4(1H,3H)-dione] | 2 to 10 nM | 2.1 to 4 µg/mL (≈ 3.76 to 7.16 µM) | 2.1 to 4 µg/mL (≈ 3.76 to 7.16 µM) | 2.1 to 4 µg/mL (≈ 3.76 to 7.16 µM) | 0.7 to 2 nM
3 | COc1ccc(F)cc1[C@H](Cn1c(=O)n([C@@H]2CNC(=O)C2)c(=O)c2c(C)c(-n3nccn3)sc21)OCCO [Compound I-91, 1-((R)-2-(5-fluoro-2-methoxyphenyl)-2-(2-hydroxy-ethoxy)ethyl)-5-methyl-3-((S)-5-oxopyrrolidin-3-yl)-6-(2H-1,2,3-triazol-2-yl)thieno[2,3-d]pyrimidine-2,4(1H,3H)-dione] | 2 to 10 nM | 2.1 to 4 µg/mL (≈ 3.86 to 7.35 µM) | 2.1 to 4 µg/mL (≈ 3.86 to 7.35 µM) | 2.1 to 4 µg/mL (≈ 3.86 to 7.35 µM) | 0.7 to 2 nM
4 | COCCO[C@@H](Cn1c(=O)n([C@@H]2CC(=O)N(C)C2)c(=O)c2c(C)c(-n3nccn3)sc21)c1cc(F)ccc1OC [Compound I-92, 1-((R)-2-(5-fluoro-2-methoxyphenyl)-2-(2-methoxy-ethoxy)ethyl)-5-methyl-3-((R)-1-methyl-5-oxopyrrolidin-3-yl)-6-(2H-1,2,3-triazol-2-yl)thieno[2,3-d]pyrimidine-2,4(1H,3H)-dione] | 10 to 100 nM | 2.1 to 4 µg/mL (≈ 3.67 to 6.99 µM) | 2.1 to 4 µg/mL (≈ 3.67 to 6.99 µM) | 2.1 to 4 µg/mL (≈ 3.67 to 6.99 µM) | 0.7 to 2 nM
5 | COc1ccc(F)cc1[C@H](Cn1c(=O)n([C@@H]2CC(=O)N(C)C2)c(=O)c2c(C)c(-n3nccn3)sc21)OCCO [Compound I-93, 1-((R)-2-(5-fluoro-2-methoxyphenyl)-2-(2-hydroxy-ethoxy)ethyl)-5-methyl-3-((R)-1-methyl-5-oxopyrrolidin-3-yl)-6-(2H-1,2,3-triazol-2-yl)thieno[2,3-d]pyrimidine-2,4(1H, 3H)-dione] | 2 to 10 nM | 2.1 to 4 µg/mL (≈ 3.76 to 7.16 µM) | 2.1 to 4 µg/mL (≈ 3.76 to 7.16 µM) | 2.1 to 4 µg/mL (≈ 3.76 to 7.16 µM) | 0.7 to 2 nM
6 | COCCO[C@@H](Cn1c(=O)n([C@H]2CC(=O)N(C)C2)c(=O)c2c(C)c(-n3nccn3)sc21)c1cc(F)ccc1OC [Compound I-94, 1-((R)-2-(5-fluoro-2-methoxyphenyl)-2-(2-methoxy-ethoxy)ethyl)-5-methyl-3-((S)-1-methyl-5-oxopyrrolidin-3-yl)-6-(2H-1,2,3-triazol-2-yl)thieno[2,3-d]pyrimidine-2,4(1H, 3H)-dione] | 2 to 10 nM | 2.1 to 4 µg/mL (≈ 3.67 to 6.99 µM) | 2.1 to 4 µg/mL (≈ 3.67 to 6.99 µM) | 2.1 to 4 µg/mL (≈ 3.67 to 6.99 µM) | 0.7 to 2 nM
7 | COc1ccc(F)cc1[C@H](Cn1c(=O)n([C@H]2CC(=O)N(C)C2)c(=O)c2c(C)c(-n3nccn3)sc21)OCCO [Compound I-95, 1-((R)-2-(5-fluoro-2-methoxyphenyl)-2-(2-hydroxy-ethoxy)ethyl)-5-methyl-3-((S)-1-methyl-5-oxopyrrolidin-3-yl)-6-(2H-1,2,3-triazol-2-yl)thieno[2,3-d]pyrimidine-2,4(1H,3H)-dione] | 2 to 10 nM | 2.1 to 4 µg/mL (≈ 3.76 to 7.16 µM) | 2.1 to 4 µg/mL (≈ 3.76 to 7.16 µM) | 2.1 to 4 µg/mL (≈ 3.76 to 7.16 µM) | 2 to 10 nM
8 | COCCO[C@@H](Cn1c(=O)n([C@H]2CCN(C(=O)C(C)C)C2)c(=O)c2c(C)c(-n3nccn3)sc21)c1cc(F)ccc1OC [Compound I-96, 1-((R)-2-(5-fluoro-2-methoxyphenyl)-2-(2-methoxy-ethoxy)ethyl)-3-((S)-1-isobutyrylpyrrolidin-3-yl)-5-methyl-6-(2H-1,2,3-triazol-2-yl)thieno[2,3-d]pyrimidine-2,4(1H,3H)-dione] | 10 to 100 nM | 2.1 to 4 µg/mL (≈ 3.42 to 6.51 µM) | 2.1 to 4 µg/mL (≈ 3.42 to 6.51 µM) | 2.1 to 4 µg/mL (≈ 3.42 to 6.51 µM) | 2 to 10 nM
9 | COc1ccc(F)cc1[C@H](Cn1c(=O)n([C@H]2CCN(C(=O)C(C)C)C2)c(=O)c2c(C)c(-n3nccn3)sc21)OCCO [Compound I-97, 1-((R)-2-(5-fluoro-2-methoxyphenyl)-2-(2-hydroxy-ethoxy)ethyl)-3-((S)-1-isobutyrylpyrrolidin-3-yl)-5-methyl-6-(2H-1,2,3-triazol-2-yl)thieno[2,3-d]pyrimidine-2,4(1H,3H)-dione] | 10 to 100 nM | 2.1 to 4 µg/mL (≈ 3.5 to 6.66 µM) | 2.1 to 4 µg/mL (≈ 3.5 to 6.66 µM) | 2.1 to 4 µg/mL (≈ 3.5 to 6.66 µM) | 0.7 to 2 nM
10 | COCCO[C@@H](Cn1c(=O)n(CCN2CCCCC2=O)c(=O)c2c(C)c(-n3nccn3)sc21)c1cc(F)ccc1OC [Compound I-98, (R)-1-(2-(S-fluoro-2-methoxyphenyl)-2-(2-methoxy-ethoxy)ethyl)-5-methyl-3-(2-(2-oxopiperidin-1-yl)ethyl)-6-(2H-1,2,3-triazol-2-yl)thieno[2,3-d]pyrimidine-2,4(1H3H)-dione] | 10 to 100 nM | 2.1 to 4 µg/mL (≈ 3.5 to 6.66 µM) | 2.1 to 4 µg/mL (≈ 3.5 to 6.66 µM) | 2.1 to 4 µg/mL (≈ 3.5 to 6.66 µM) | 2 to 10 nM
11 | COCCO[C@@H](Cn1c(=O)n(CCN2CCCC2=O)c(=O)c2c(C)c(-n3nccn3)sc21)c1cc(F)ccc1OC [Compound I-99, (R)-1-(2-(5-fluoro-2-methoxyphenyl)-2-(2-methoxy-ethoxy)ethyl)-5-methyl-3-(2-(2-oxopyrrolidin-1-yl)ethyl)-6-(2H-1,2,3-triazol-2-yl)thieno[2,3-d]pyrimidine-2,4(1H,3H)-dione] | 10 to 100 nM | 2.1 to 4 µg/mL (≈ 3.58 to 6.82 µM) | 2.1 to 4 µg/mL (≈ 3.58 to 6.82 µM) | 2.1 to 4 µg/mL (≈ 3.58 to 6.82 µM) | 0.7 to 2 nM
12 | COCCO[C@@H](Cn1c(=O)n(CCN2CCCNC2=O)c(=O)c2c(C)c(-n3nccn3)sc21)c1cc(F)ccc1OC [Compound I-100, (R)-1-(2-(5-fluoro-2-methoxyphenyl)-2-(2-methoxy-ethoxy)ethyl)-5-methyl-3-(2-(2-oxotetrahydropyrimidin-1 (2H)-yl)ethyl)-6-(2H-1,2,3-triazol-2-yl)thieno[2,3-d]pyrimidine-2,4(1H,3H)-dione] | 10 to 100 nM | 2.1 to 4 µg/mL (≈ 3.49 to 6.65 µM) | 2.1 to 4 µg/mL (≈ 3.49 to 6.65 µM) | 2.1 to 4 µg/mL (≈ 3.49 to 6.65 µM) | 2 to 10 nM
13 | COCCO[C@@H](COc1nc2sc(-n3nccn3)c(C)c2c(=O)n1[C@@H]1CCN(C(=O)C(C)C)C1)c1cc(F)ccc1OC [Compound I-101, 2-((R)-2-(5-fluoro-2-methoxyphenyl)-2-(2-methoxy-ethoxy)ethoxy)-3-((R)-1-isobutyrylpyrrolidin-3-yl)-5-methyl-6-(2H-1,2,3-triazol-2-yl)thieno[2,3-d]pyrimidin-4(3H)-one] | > 1000 nM | 2.1 to 4 µg/mL (≈ 3.42 to 6.51 µM) | 2.1 to 4 µg/mL (≈ 3.42 to 6.51 µM) | 2.1 to 4 µg/mL (≈ 3.42 to 6.51 µM) | 10 to 100 nM
14 | COc1ccc(F)cc1[C@H](COc1nc2sc(-n3nccn3)c(C)c2c(=O)n1[C@H]1CNC(=O)C1)OCCO [Compound I-102, 2-((R)-2-(5-fluoro-2-methoxyphenyl)-2-(2-hydroxy-ethoxy)ethoxy)-5-methyl-3-((R)-5-oxopyrrolidin-3-yl)-6-(2H-1,2,3-triazol-2-yl)thieno[2,3-d]pyrimidin-4(3H)-one] | > 1000 nM | 2.1 to 4 µg/mL (≈ 3.86 to 7.35 µM) | 2.1 to 4 µg/mL (≈ 3.86 to 7.35 µM) | 2.1 to 4 µg/mL (≈ 3.86 to 7.35 µM) | 10 to 100 nM
15 | COc1ccc(F)cc1[C@H](COc1nc2sc(-n3nccn3)c(C)c2c(=O)n1[C@@H]1CNC(=O)C1)OCCO [Compound I-103, 2-((R)-2-(5-fluoro-2-methoxyphenyl)-2-(2-hydroxy-ethoxy)ethoxy)-5-methyl-3-((S)-5-oxopyrrolidin-3-yl)-6-(2H-1,2,3-triazol-2-yl)thieno[2,3-d]pyrimidin-4(3H)-one] | > 1000 nM | 2.1 to 4 µg/mL (≈ 3.86 to 7.35 µM) | 2.1 to 4 µg/mL (≈ 3.86 to 7.35 µM) | 2.1 to 4 µg/mL (≈ 3.86 to 7.35 µM) | 10 to 100 nM
16 | COCCO[C@@H](Cn1c(=O)n([C@H]2CCN(C(C)C)C2=O)c(=O)c2c(C)c(-n3nccn3)sc21)c1cc(F)ccc1OC [Compound I-104, 1-((R)-2-(5-fluoro-2-methoxyphenyl)-2-(2-methoxy-ethoxy)ethyl)-3-((S)-1-isopropyl-2-oxopyrrolidin-3-yl)-5-methyl-6-(2H-1,2,3-triazol-2-yl)thieno[2,3-d]pyrimidine-2,4(1H,3H)-dione] | 10 to 100 nM | 2.1 to 4 µg/mL (≈ 3.5 to 6.66 µM) | 2.1 to 4 µg/mL (≈ 3.5 to 6.66 µM) | 2.1 to 4 µg/mL (≈ 3.5 to 6.66 µM) | 0.7 to 2 nM
17 | COCCO[C@@H](Cn1c(=O)n([C@@H]2CCN(C(C)C)C2=O)c(=O)c2c(C)c(-n3nccn3)sc21)c1cc(F)ccc1OC [Compound I-105, 1-((R)-2-(5-fluoro-2-methoxyphenyl)-2-(2-methoxy-ethoxy)ethyl)-3-((R)-1-isopropyl-2-oxopyrrolidin-3-yl)-5-methyl-6-(2H-1,2,3-triazol-2-yl)thieno[2,3-d]pyrimidine-2,4(1H,3H)-dione] | 10 to 100 nM | 2.1 to 4 µg/mL (≈ 3.5 to 6.66 µM) | 2.1 to 4 µg/mL (≈ 3.5 to 6.66 µM) | 2.1 to 4 µg/mL (≈ 3.5 to 6.66 µM) | 2 to 10 nM
